Data reported in patent US20260223897A1, “SIAMENOSIDE I SWEETENED BEVERAGES WITH MOGROSIDE BLENDS” (The Coca-Cola Company, priority 2023, published 2026).

What was measured:
panelists [1] = experiment: Example 2 paired sensory test: higher licorice flavor; conditions: Table 7; Sample A = 400 ppm Siamenoside I alone vs Sample B (blend, 400 ppm total)
panelists [2] = experiment: Example 2 paired sensory test: more bitter sample; type: in vivo; conditions: Table 6
panelists [3] = experiment: Example 3 paired sensory test: higher licorice flavor; type: in vivo; conditions: Table 14; Sample A = 500 ppm Siamenoside I alone vs Sample B (tri-blend of same row, 500 ppm total)
Procedure: Samples were tested within 7 days.
Sensory tests were carried out with 8-12 panelists. Each pair of mogroside blends was evaluated by each panelist in triplet.

[4] = cited from earlier work
panelists [5] = experiment: Example 1 paired taste test: panelists select the more bitter sample; type: in vivo
Procedure: The sample was tested within 24 hours at room temperature.
Taste tests were carried out with 7-9 panelists and run singlet to triplet.

panelists [6] = experiment: Example 3 paired sensory test: more bitter sample; type: in vivo
Procedure: Samples were tested within 7 days. […] Each pair of mogroside blends was evaluated by each panelist in triplet.

panelists [7] = experiment: Example 2 paired sensory test: higher syrupy mouthfeel; conditions: Table 10; Sample A = 400 ppm Siamenoside I alone vs Sample B (blend, 400 ppm total)

## C[C@H](CC[C@@H](O[C@@H]1O[C@H](CO[C@@H]2O[C@H](CO)[C@@H](O)[C@H](O)[C@H]2O)[C@@H](O)[C@H](O)[C@H]1O[C@@H]1O[C@H](CO)[C@@H](O)[C@H](O)[C@H]1O)C(C)(C)O)[C@H]1CC[C@@]2(C)[C@@H]3CC=C4[C@@H](CC[C@H](O[C@@H]5O[C@H](CO)[C@@H](O)[C@H](O)[C@H]5O)C4(C)C)[C@]3(C)[C@H](O)C[C@]12C [Siamenoside I]
Panelists [1]
  Number of Panelist that chose A as higher licorice flavor: 20
Panelists [2]; Sample A = 400 ppm Siamenoside I alone vs Sample B (blend, 400 ppm total)
  Number of Panelists that chose A as more bitter: 17
Panelists [2]; Sample A = 500 ppm Siamenoside I alone vs Sample B (blend, 500 ppm total), Sample B with 400 ppm of Siamenoside I
  Number of Panelists that chose A as more bitter: 12
Panelists [2]; Sample A = 500 ppm Siamenoside I alone vs Sample B (blend, 500 ppm total), Sample B with 450 ppm of Siamenoside I
  Number of Panelists that chose A as more bitter: 15
Panelists [2]; Sample A = 500 ppm Siamenoside I alone vs Sample B (blend, 500 ppm total), Sample B with 487.5 ppm of Siamenoside I
  Number of Panelists that chose A as more bitter: 13
Panelists [3]
  Number of Panelist to choose A as higher licorice flavor: 23
[4]; WO 2018213683 A1
  taste balance compared with mogroside V: better balance in sweetness, bitterness, sweet linger, astringency, and mouthfeel than mogroside V
[4]; high purity, concentrations required to achieve a sucrose equivalence to 10° Brix
  sensory properties at high concentrations: significant off-tastes such as licorice, metallic and bitter tastes, as well as sweetness lingering and bitter lingering
Panelists [5]; Table 1, Sample A = 400 ppm siamenoside alone vs Sample B (blend of same row, 400 ppm total mogroside), filtered water
  Number of Panelists that chose A as more bitter: 15
Panelists [5]; Table 2, Sample A = 400 ppm Siamenoside I alone vs Sample B (blend, 400 ppm total)
  Number of Panelists that chose A as more bitter: 6
Panelists [5]; Table 3, Sample A = 400 ppm Siamenoside I alone vs Sample B (blend, 400 ppm total)
  Number of Panelists that chose A as more bitter: 10
Panelists [5]; Table 3, Sample A = 500 ppm Siamenoside I alone vs Sample B (blend, 500 ppm total)
  Number of Panelists that chose A as more bitter: 7
Panelists [6]; Table 11, Sample A = 500 ppm Siamenoside I alone vs Sample B (tri-blend, 500 ppm total)
  Number of Panelist to choose A as more bitter: 19
Panelists [6]; Table 13, Sample A = 500 ppm Siamenoside I alone vs Sample B (blend, 500 ppm total)
  Number of Panelist to choose A as more bitter: 16
Panelists [7]
  Number of Panelist to choose A as higher syrupy mouthfeel: 7
